# Experimental data published in ChEMBL document CHEMBL2046380, “Synthesis and structure-activity relationship of disubstituted benzamides as a novel class of antimalarial agents” (Bioorg Med Chem Lett, 2012).
# Key:
# [1] = tested on: BJ; experiment: Cytotoxicity against human BJ cells after 72 hrs by […] CellTiterGlo reagent assay; format: cell-based
# [2] = tested on: HepG2; experiment: Cytotoxicity against human HepG2 cells after 72 hrs by […] CellTiterGlo reagent assay; format: cell-based; conditions: HepG2, 72 h
# [3] = tested on: Plasmodium falciparum; experiment: Antimalarial activity against chloroquine-sensitive Plasmodium falciparum 3D7 incubated for 72 hrs by DNA staining based MAR3D7 growth inhibition assay; format: functional, organism-based; conditions: 3D7, 72 h
# [4] = tested on: HEK293; experiment: Cytotoxicity against human HEK293 cells after 72 hrs by […] CellTiterGlo reagent assay; format: cell-based; conditions: HEK293, 72 h
# [5] = tested on: Plasmodium falciparum; experiment: Antimalarial activity against […] incubated for 72 hrs by DNA staining based MARK1 growth inhibition assay; format: functional, organism-based
# [6] = tested on: Raji; experiment: Cytotoxicity against human Raji cells after 72 hrs by […] CellTiterGlo reagent assay; format: cell-based
Compound,EC50 [1] [µM],EC50 [2] [µM],EC50 [3] [µM],EC50 [4] [µM],EC50 [5] [µM],EC50 [6] [µM]
CC(C)N(Cc1cccc(OCCCCCC(=O)O)c1)C(=O)c1ccc(-c2c[nH]c3ccccc23)cc1,> 26,> 26,> 15,> 26,> 15,> 26
CCOC(=O)CCCCCOc1ccc(CN(C(=O)c2ccc(-c3ccc4c(c3)OCO4)cc2)C(C)C)cc1,> 26,> 26,> 15,> 26,> 15,> 26
CC(C)N(Cc1cccc(OCCCCCC(=O)O)c1)C(=O)c1ccc(-c2ccc3ccccc3c2)cc1,> 26,> 26,< 0.0004,> 26,> 15,> 26
CCOC(=O)CCCCCOc1cccc(CN(C(=O)c2ccc(-c3cccc(OC(F)(F)F)c3)cc2)C(C)C)c1,> 26,> 26,> 15,> 26,> 15,> 26
CC(C)N(Cc1cccc(OCCCCCC(=O)O)c1)C(=O)c1ccc(-c2cccc(F)c2)cc1,> 26,> 26,> 15,> 26,> 15,> 26
C#CCCC(=O)NCCc1ccc(OC)c(OC)c1,> 13,> 13,> 7.51,> 13,> 7.51,> 13
COc1cc2c(cc1OC)C(C)=NCC2,> 13,> 13,> 7.51,> 13,> 7.51,> 13
CCOC(=O)CCCCCOc1cccc(CN(C(=O)c2ccc(-c3ccc(C(C)=O)s3)cc2)C(C)C)c1,> 26,> 26,> 15,> 26,> 15,> 26
CCCN(Cc1cccc(OCCCCCC(=O)OCC)c1)C(=O)c1ccc(-c2ccc3c(c2)OCO3)cc1,> 26,> 26,> 15,> 26,> 15,> 26
CCCN(Cc1ccc(OCCCCCC(=O)OCC)cc1)C(=O)c1ccc(-c2ccc3c(c2)OCO3)cc1,> 26,> 26,> 15,> 26,> 15,> 26
CC(C)N(Cc1cccc(OCCCCCC(=O)O)c1)C(=O)c1ccc(-c2ccc3c(c2)OCO3)cc1,> 26,> 26,0.0604,> 26,0.438,> 26
CCOC(=O)CCCCCOc1cccc(CN(C(=O)c2ccc(-c3cc(OC)ccc3F)cc2)C(C)C)c1,> 26,> 26,> 15,> 26,> 15,> 26
CCOC(=O)CCCCCOc1cccc(CN(C(=O)c2ccc(-c3cccc(-c4nnc(C)o4)c3)cc2)C(C)C)c1,> 26,> 26,> 15,> 26,> 15,> 26
CCOC(=O)CCCCCOc1cccc(CN(C(=O)c2ccc(-c3cccc(OCC)c3)cc2)C(C)C)c1,> 22.4,> 22.4,> 12.4,> 22.4,> 12.4,> 22.4
COc1cc2c(cc1OC)C1(CC=CCC1)N(C(C)=O)CC2 (stereo not drawn),> 13,> 13,> 7.51,> 13,> 7.51,> 13
COc1cc2c(cc1OC)C(CC1(C)OCCO1)=NCC2,> 13,> 13,> 7.51,> 13,> 7.51,> 13
CCOC(=O)CCCCCOc1cccc(CN(C(=O)c2ccc(-c3cccc(F)c3)cc2)C(C)C)c1,> 26,> 26,> 15,> 26,> 15,> 26
CCOC(=O)CCCCCOc1cccc(CN(C(=O)c2ccc(-c3cccc4ccccc34)cc2)C(C)C)c1,> 26,> 26,> 15,> 26,> 15,> 26
CC(C)N(Cc1cccc(OCCCCCC(=O)O)c1)C(=O)c1ccc(-c2ccc(Cl)c(Cl)c2)cc1,> 26,> 26,> 15,> 26,0.0175,> 26
CCOC(=O)CCCCCOc1cccc(CN(C(=O)c2ccc(-c3cccc(N(C)C)c3)cc2)C(C)C)c1,> 26,> 26,> 15,> 26,> 15,> 26
CCOC(=O)CCCCCOc1cccc(CN(C(=O)c2ccc(Br)cc2)C(C)C)c1,> 26,> 26,> 15,> 26,> 15,> 26
CC(C)N(Cc1ccccc1OCCCCCC(=O)O)C(=O)c1ccc(-c2ccc3c(c2)OCO3)cc1,> 26,> 26,> 15,> 26,> 15,> 26

Compound,EC50 [1] [µM],EC50 [2] [µM],EC50 [3] [µM],EC50 [4] [µM],EC50 [5] [µM],EC50 [6] [µM]
CCOC(=O)CCCCCOc1ccc(CO)cc1,> 27.2,> 27.2,> 15,> 27.2,> 15,> 27.2
C=CCCC(=O)NC[C@H](O)c1ccc2c(c1)OCO2,> 13,> 13,> 7.51,> 13,> 7.51,> 13
CCOC(=O)CCCCCOc1cccc(CN(C(=O)c2ccc(-c3ccc4[nH]ccc4c3)cc2)C(C)C)c1,> 26,> 26,> 15,> 26,> 15,> 26
CCOC(OCC)C1=NCCc2cc(OC)c(OC)cc21,> 13,> 13,> 7.51,> 13,> 7.51,> 13
C[C@@H](NC(=O)c1ccc(-c2ccc3c(c2)OCO3)cc1)c1ccccc1,> 26,> 26,> 15,> 26,> 15,> 26
CCOC(=O)CCCCCOc1ccc(CNC(C)C)cc1,> 26,> 26,> 15,> 26,> 15,> 26
CCOC(=O)CCCCCOc1cccc(C=O)c1,> 26,> 26,> 15,> 26,> 15,> 26
CCCN(Cc1ccccc1OCCCCCC(=O)OCC)C(=O)c1ccc(-c2ccc3c(c2)OCO3)cc1,> 26,> 26,> 15,> 26,> 15,> 26
CCOC(=O)CCCCCOc1cccc(CN(C(=O)c2ccc(-c3cccc(C(C)=O)c3)cc2)C(C)C)c1,> 26,> 26,> 1.5,> 26,> 15,> 26
CCOC(=O)CCCCCOc1cccc(CN(C(=O)c2ccccc2)C(C)C)c1,> 26,> 26,> 15,> 26,> 12.5,> 26
C=CCCN(CCc1ccc(OC)c(OC)c1)C(=O)CC(C)=O,> 13,> 13,> 7.51,> 13,> 7.51,> 13
COc1cc(OC)cc(-c2ccc(C(=O)N(Cc3cccc(OCCCCCC(=O)O)c3)C(C)C)cc2)c1,> 26,> 26,> 15,> 26,> 15,> 26
CC(C)N(Cc1cccc(OCCCCCC(=O)O)c1)C(=O)c1ccc(-c2cc3ccccc3n2S(=O)(=O)c2ccccc2)cc1,> 26,> 26,> 15,> 26,> 15,> 26
CCOC(=O)CCCCCOc1cccc(CN(C(=O)c2ccc(-c3cc(F)cc(OC)c3)cc2)C(C)C)c1,> 26,> 26,> 15,> 26,> 15,> 26
CCOc1cccc(-c2ccc(C(=O)N(Cc3cccc(OCCCCCC(=O)O)c3)C(C)C)cc2)c1,> 20.9,> 20.9,> 11.5,> 20.9,> 11.5,> 20.9
CCOC(=O)CCCCCOc1ccccc1CN(C(=O)c1ccc(-c2ccc3c(c2)OCO3)cc1)C(C)C,> 26,> 26,> 15,> 26,> 15,> 26
CCCN(Cc1ccccc1OCCCCCC(=O)O)C(=O)c1ccc(-c2ccc3c(c2)OCO3)cc1,> 26,> 26,> 15,> 26,> 15,> 26
CCOC(=O)CCCCCOc1cccc(CN(C(=O)c2ccc(-c3cccc(O)c3)cc2)C(C)C)c1,> 26,> 26,> 15,> 26,> 15,> 26
CCOC(=O)CCCCCOc1cccc(CNC(C)C)c1,> 26,> 26,> 15,> 26,> 15,> 26
CCOC(=O)CC(=O)NCC(OCC)(OCC)c1ccc2c(c1)OCO2,> 13,> 13,> 7.51,> 13,> 7.51,> 13
O=C(O)c1cc(-c2cccs2)nc2ccccc12,> 26,> 26,0.664,> 26,0.822,> 26
